Consider 18 compounds from patent US20230322761A1, “DEGRADATION OF BRUTON'S TYROSINE KINASE (BTK) BY CONJUGATION OF BTK INHIBITORS WITH E3 LIGASE LIGAND AND METHODS OF USE” (BEIGENE, LTD., priority 2020, published 2023).

T1 sequence (Q06187 whole entry): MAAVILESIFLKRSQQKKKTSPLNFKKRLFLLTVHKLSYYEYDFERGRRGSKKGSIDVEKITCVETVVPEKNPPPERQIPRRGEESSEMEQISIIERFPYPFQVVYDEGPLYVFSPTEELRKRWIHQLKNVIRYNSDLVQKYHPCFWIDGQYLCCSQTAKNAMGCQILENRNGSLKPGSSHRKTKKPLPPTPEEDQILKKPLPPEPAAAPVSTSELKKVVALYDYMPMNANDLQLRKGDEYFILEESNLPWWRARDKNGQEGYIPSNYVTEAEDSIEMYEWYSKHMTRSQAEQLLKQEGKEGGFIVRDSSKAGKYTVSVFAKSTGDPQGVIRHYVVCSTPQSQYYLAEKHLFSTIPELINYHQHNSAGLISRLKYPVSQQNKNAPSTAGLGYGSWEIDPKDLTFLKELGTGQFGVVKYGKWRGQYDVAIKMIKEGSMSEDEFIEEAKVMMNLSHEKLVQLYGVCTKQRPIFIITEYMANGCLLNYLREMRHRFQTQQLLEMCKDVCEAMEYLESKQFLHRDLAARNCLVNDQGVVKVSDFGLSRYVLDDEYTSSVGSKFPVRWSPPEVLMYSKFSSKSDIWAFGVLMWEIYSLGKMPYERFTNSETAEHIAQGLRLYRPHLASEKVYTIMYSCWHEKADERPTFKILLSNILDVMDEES

The test concerns the target T1, BTK (Homo sapiens, UniProt Q06187).
T1 construct: endogenous in cells; host or cells: TMD-8 cells
Put plainly: BTK degradation in TMD-8 cells, HTRF assay after 6 h treatment. It counts as cell-based. Conditions: IC50 (DC50) of BTK degradation. In short, it runs like this:
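Remaining BTK was quantified by HTRF in lysates of TMD-8 cells after 6 h exposure to an 8-point, 6-fold compound series (500× stocks in DMSO starting at 1 mM; 0.2% DMSO). Lysis 30 min, antibodies overnight at room temperature, ratio read at 665/620 nm; DC50 fitted with a four-parameter logistic equation.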
`COc1cc(-c2cnc3[nH]nc(-c4ccc([C@@H](C)NC(=O)c5noc(C(C)(C)C)n5)c(C)c4)c3c2)ccc1N1CCN(CC2CCN(c3ccc(N4CCC(=O)NC4=O)cc3)CC2)CC1` [Example 120, (R)-5-(tert-butyl)-N-(1-(4-(5-(4-(4-((1-(4-(2,4-dioxotetrahydropyrimidin-1(2H)-yl)phenyl)piperidin-4-yl)methyl)piperazin-1-yl)-3-methoxyphenyl)-1H-pyrazolo[3,4-b]pyridin-3-yl)-2-methylphenyl)ethyl)-1,2,4-oxadiazole-3-carboxamide] yielded a half-maximal degradation concentration (DC50) of 5.82 nM.

Regarding `CC(C)(C)c1nc(C(=O)NCc2ccc(-c3n[nH]c4ncc(-c5ccc(N6CCN(CC7CCN(c8ccc(N9CCC(=O)NC9=O)cc8)CC7)CC6)cc5)cc34)cc2CO)no1` [Example 121, 5-(tert-butyl)-N-(4-(5-(4-(4-((1-(4-(2,4-dioxotetrahydropyrimidin-1(2H)-yl)phenyl)piperidin-4-yl)methyl)piperazin-1-yl)phenyl)-1H-pyrazolo[3,4-b]pyridin-3-yl)-2-(hydroxymethyl)benzyl)-1,2,4-oxadiazole-3-carboxamide], it took 2.39 nM to reach half-maximal degradation (DC50).

With `Cc1cc(-c2n[nH]c3ncc(-c4ccc(N5CCN(CCc6ccc(N7CCC(=O)NC7=O)cc6)CC5)cn4)cc23)ccc1[C@@H](C)NC(=O)c1noc(C(C)(C)C)n1` [Example 122, (R)-5-(tert-butyl)-N-(1-(4-(5-(5-(4-(4-(2,4-dioxotetrahydropyrimidin-1(2H)-yl)phenethyl)piperazin-1-yl)pyridin-2-yl)-1H-pyrazolo[3,4-b]pyridin-3-yl)-2-methylphenyl)ethyl)-1,2,4-oxadiazole-3-carboxamide], the DC50 amounted to 2.22 nM.

`Cc1cc(-c2n[nH]c3ncc(-c4ccc(N5CCN(CCc6ccc(OC7CCC(=O)NC7=O)cc6)CC5)cc4)cc23)ccc1[C@@H](C)NC(=O)c1noc(C(C)(C)C)n1` (stereo partly drawn) [Example 123, 5-(tert-butyl)-N-((1R)-1-(4-(5-(4-(4-(4-((2,6-dioxopiperidin-3-yl)oxy)phenethyl)piperazin-1-yl)phenyl)-1H-pyrazolo[3,4-b]pyridin-3-yl)-2-methylphenyl)ethyl)-1,2,4-oxadiazole-3-carboxamide] showed a DC50 of 14.2 nM.

In the case of `Cc1cc(-c2n[nH]c3ncc(-c4ccc(N5CCN(CC6CCN(c7ccc(N8CCC(=O)NC8=O)cn7)CC6)CC5)cc4)cc23)ccc1[C@@H](C)NC(=O)c1noc(C(C)(C)C)n1` [Example 124, (R)-5-(tert-butyl)-N-(1-(4-(5-(4-(4-((1-(5-(2,4-dioxotetrahydropyrimidin-1(2H)-yl)pyridin-2-yl)piperidin-4-yl)methyl)piperazin-1-yl)phenyl)-1H-pyrazolo[3,4-b]pyridin-3-yl)-2-methylphenyl)ethyl)-1,2,4-oxadiazole-3-carboxamide], the DC50 stood at 1.42 nM.

Turning to `Cc1cc(-c2n[nH]c3ncc(-c4ccc(N5CCN(CCc6ccc(C7CCC(=O)NC7=O)cc6)CC5)cc4)cc23)ccc1[C@@H](C)NC(=O)c1cn(C(C)(C)C)nn1` (stereo partly drawn) [Example 125, 1-(tert-butyl)-N-((1R)-1-(4-(5-(4-(4-(4-(2,6-dioxopiperidin-3-yl)phenethyl)piperazin-1-yl)phenyl)-1H-pyrazolo[3,4-b]pyridin-3-yl)-2-methylphenyl)ethyl)-1H-1,2,3-triazole-4-carboxamide], the DC50 was 15.2 nM.

In turn, `Cc1cc(-c2n[nH]c3ncc(-c4ccc(N5CC6CC5CN6CC5CCN(c6ccc(N7CCC(=O)NC7=O)cc6)CC5)cn4)cc23)ccc1[C@@H](C)NC(=O)c1noc(C(C)(C)C)n1` (stereo partly drawn) [Example 127, 5-(tert-butyl)-N-((1R)-1-(4-(5-(5-(5-((1-(4-(2,4-dioxotetrahydropyrimidin-1(2H)-yl)phenyl)piperidin-4-yl)methyl)-2,5-diazabicyclo[2.2.1]heptan-2-yl)pyridin-2-yl)-1H-pyrazolo[3,4-b]pyridin-3-yl)-2-methylphenyl)ethyl)-1,2,4-oxadiazole-3-carboxamide] had a DC50 of 6.79 nM.

As to `Cc1cc(-c2n[nH]c3ncc(-c4ccc(CCN5CCN(c6ccc(N7CCC(=O)NC7=O)cc6)CC5)cc4)cc23)ccc1[C@@H](C)NC(=O)c1noc(C(C)(C)C)n1` [Example 128, (R)-5-(tert-butyl)-N-(1-(4-(5-(4-(2-(4-(4-(2,4-dioxotetrahydropyrimidin-1(2H)-yl)phenyl)piperazin-1-yl)ethyl)phenyl)-1H-pyrazolo[3,4-b]pyridin-3-yl)-2-methylphenyl)ethyl)-1,2,4-oxadiazole-3-carboxamide], half-maximal degradation (DC50) was put at 5.84 nM.

The compound `Cc1cc(-c2n[nH]c3ncc(-c4ccc(N5CCN(CCc6ccc(N7CCC(=O)NC7=O)cc6)CC5)cc4)cc23)ccc1[C@@H](C)NC(=O)c1noc(C(C)(C)C)n1` [Example 129, (R)-5-(tert-butyl)-N-(1-(4-(5-(4-(4-(4-(2,4-dioxotetrahydropyrimidin-1(2H)-yl)phenethyl)piperazin-1-yl)phenyl)-1H-pyrazolo[3,4-b]pyridin-3-yl)-2-methylphenyl)ethyl)-1,2,4-oxadiazole-3-carboxamide] displayed a half-maximal degradation concentration (DC50) of 3.73 nM.

The compound `COc1cc(OCCCN2CCN(c3ccc(-c4cnc5[nH]nc(-c6ccc([C@@H](C)NC(=O)c7noc(C(C)(C)C)n7)c(C)c6)c5c4)cc3)CC2)ccc1NC1CCC(=O)NC1=O` (stereo partly drawn) [Example 130, 5-(tert-butyl)-N-((1R)-1-(4-(5-(4-(4-(3-(4-((2,6-dioxopiperidin-3-yl)amino)-3-methoxyphenoxy)propyl)piperazin-1-yl)phenyl)-1H-pyrazolo[3,4-b]pyridin-3-yl)-2-methylphenyl)ethyl)-1,2,4-oxadiazole-3-carboxamide] came in with a half-maximal degradation concentration (DC50) of 5.28 nM.

Compound `Cc1cc(-c2n[nH]c3ncc(-c4ccc(N5CCN(CCc6ccc(NC7CCC(=O)NC7=O)cc6)CC5)cc4)cc23)ccc1[C@@H](C)NC(=O)c1noc(C(C)(C)C)n1` (stereo partly drawn) [Example 131, 5-(tert-butyl)-N-((1R)-1-(4-(5-(4-(4-(4-((2,6-dioxopiperidin-3-yl)amino)phenethyl)piperazin-1-yl)phenyl)-1H-pyrazolo[3,4-b]pyridin-3-yl)-2-methylphenyl)ethyl)-1,2,4-oxadiazole-3-carboxamide] displayed a DC50 of 5.9 nM.

As to `Cc1cc(-c2n[nH]c3ncc(-c4ccc(N5CC6CC5CN6CCc5ccc(N6CCC(=O)NC6=O)cc5)cn4)cc23)ccc1[C@@H](C)NC(=O)c1noc(C(C)(C)C)n1` (stereo partly drawn) [Example 132, 5-(tert-butyl)-N-((1R)-1-(4-(5-(5-(5-(4-(2,4-dioxotetrahydropyrimidin-1(2H)-yl)phenethyl)-2,5-diazabicyclo[2.2.1]heptan-2-yl)pyridin-2-yl)-1H-pyrazolo[3,4-b]pyridin-3-yl)-2-methylphenyl)ethyl)-1,2,4-oxadiazole-3-carboxamide], the DC50 is > 2000 nM.

In turn, `Cc1cc(-c2n[nH]c3ncc(-c4ccc(N5CC6CC5CN6CCc5ccc(C6CCC(=O)NC6=O)cc5)cn4)cc23)ccc1[C@@H](C)NC(=O)c1noc(C(C)(C)C)n1` (stereo partly drawn) [Example 133, 5-(tert-butyl)-N-((1R)-1-(4-(5-(5-(5-(4-(2,6-dioxopiperidin-3-yl)phenethyl)-2,5-diazabicyclo[2.2.1]heptan-2-yl)pyridin-2-yl)-1H-pyrazolo[3,4-b]pyridin-3-yl)-2-methylphenyl)ethyl)-1,2,4-oxadiazole-3-carboxamide] yielded a 50% degradation concentration (DC50) of 1.96 nM.

For the compound `Cc1cc(-c2n[nH]c3ncc(-c4ccc(N5CCN(CC6CCN(c7ccc(N8CCC(=O)NC8=O)cc7F)CC6)CC5)cc4)cc23)ccc1[C@@H](C)NC(=O)c1noc(C(C)(C)C)n1` [Example 134, (R)-5-(tert-butyl)-N-(1-(4-(5-(4-(4-((1-(4-(2,4-dioxotetrahydropyrimidin-1(2H)-yl)-2-fluorophenyl)piperidin-4-yl)methyl)piperazin-1-yl)phenyl)-1H-pyrazolo[3,4-b]pyridin-3-yl)-2-methylphenyl)ethyl)-1,2,4-oxadiazole-3-carboxamide], the half-maximal degradation concentration (DC50) came to 9.96 nM.

Take `Cc1cc(-c2n[nH]c3ncc(-c4ccc(N5CCN(CC6CCN(c7ccc(N8CCC(=O)NC8=O)cc7C)CC6)CC5)cc4)cc23)ccc1[C@@H](C)NC(=O)c1noc(C(C)(C)C)n1` [Example 135, (R)-5-(tert-butyl)-N-(1-(4-(5-(4-(4-((1-(4-(2,4-dioxotetrahydropyrimidin-1(2H)-yl)-2-methylphenyl)piperidin-4-yl)methyl)piperazin-1-yl)phenyl)-1H-pyrazolo[3,4-b]pyridin-3-yl)-2-methylphenyl)ethyl)-1,2,4-oxadiazole-3-carboxamide]: the DC50 turned out to be 12.7 nM.

`Cc1cc(-c2n[nH]c3ncc(-c4ccc(N5CCN(CCC6CCN(c7ccc(C8CCC(=O)NC8=O)c(C)n7)CC6)CC5)cc4)cc23)ccc1[C@@H](C)NC(=O)c1noc(C(C)(C)C)n1` (stereo partly drawn) [Example 136, 5-(tert-butyl)-N-((1R)-1-(4-(5-(4-(4-(2-(1-(5-(2,6-dioxopiperidin-3-yl)-6-methylpyridin-2-yl)piperidin-4-yl)ethyl)piperazin-1-yl)phenyl)-1H-pyrazolo[3,4-b]pyridin-3-yl)-2-methylphenyl)ethyl)-1,2,4-oxadiazole-3-carboxamide] had a DC50 of 14.9 nM.

Compound `COc1cc(CCN2CCN(c3ccc(-c4cnc5[nH]nc(-c6ccc([C@@H](C)NC(=O)c7noc(C(C)(C)C)n7)c(C)c6)c5c4)cc3)CC2)ccc1C1CCC(=O)NC1=O` (stereo partly drawn) [Example 137, 5-(tert-butyl)-N-((1R)-1-(4-(5-(4-(4-(4-(2,6-dioxopiperidin-3-yl)-3-methoxyphenethyl)piperazin-1-yl)phenyl)-1H-pyrazolo[3,4-b]pyridin-3-yl)-2-methylphenyl)ethyl)-1,2,4-oxadiazole-3-carboxamide] registered a DC50 of 5.23 nM.

Regarding `Cc1cc(-c2n[nH]c3ncc(-c4ccc(N5CCN(CC6CCN(c7cccc(N8CCC(=O)NC8=O)c7)CC6)CC5)cc4)cc23)ccc1[C@@H](C)NC(=O)c1noc(C(C)(C)C)n1` [Example 138, (R)-5-(tert-butyl)-N-(1-(4-(5-(4-(4-((1-(3-(2,4-dioxotetrahydropyrimidin-1(2H)-yl)phenyl)piperidin-4-yl)methyl)piperazin-1-yl)phenyl)-1H-pyrazolo[3,4-b]pyridin-3-yl)-2-methylphenyl)ethyl)-1,2,4-oxadiazole-3-carboxamide], the DC50 was found to be 8.6 nM.
